According to US4487768A, “Cephem compounds” (Fujisawa Pharmaceutical Co., Ltd., priority 1982, dated 1984):
≈ marks a conversion by molar mass, not a printed value.

Columns and labels:
[1] = Urinary excretion in rats after oral administration; assay type: in vivo; conditions: rat, oral 100 mg/kg, urine 0 to 6 and 6 to 24 hours, bioassay, read-out: Urinary recovery in 24 hours (%)
Description: Urine of rats was collected with a urine collector at 0 to 6, and 6 to 24 hours after oral administration of 100 mg/kg of the test antibiotic. The antibiotic levels in the urine samples were bioassayed with the standard solution prepared with M/15 phosphate buffer (pH 7.0) and the urinary recovery in 24 hours was calculated.

[2] = system: Proteus mirabilis 18; experiment: Minimal inhibitory concentration, two-fold agar-plate dilution method; assay type: cell-based; conditions: HI-agar, 37° C., 20 hours, 10^8 viable cells per ml
Description: (§1) (A) Minimal inhibitory concentration 1 Test Method In vitro antibacterial activity was determined by the two-fold agar-plate dilution method as described below. One loopful of an overnight culture of each test strain in Trypticase-soy broth (10^8 viable cells per ml) was streaked on heart infusion agar (HI-agar) containing graded concentrations of representative test compound, and the minimal inhibitory concentration (MIC) was expressed in tems of μg/ml after incubation at 37° C. for 20 hours.

[3] = system: Proteus vulgaris 2; experiment: as above; assay type: cell-based; conditions: HI-agar, 37° C., 20 hours, 10^8 viable cells per ml
Description: as §1

[4] = in vivo; conditions: rat, po, 100 mg/kg
Description: Rats anesthetized with pentobarbital were fixed in supine position, and a polyethylene cannula was inserted into the bile duct. Bile samples were collected at 0 to 3, 3 to 6, and 6 to 24 hours after oral administration of 100 mg/kg of the test antibiotic. The antibiotic levels in the bile samples were bioassayed with the standard solutions prepared with M/15 phosphate buffer (pH 7.0) and the biliary recovery in 24 hours were calculated.

SMILES: [N-]=[N+]=NCC1=C(C(=O)O)N2C(=O)C(NC(=O)/C(=N\OCC(=O)O)c3nsc(N)n3)C2SC1 (stereo not drawn) [Test Compound (1), 7-[2-Carboxymethoxyimino-2-(5-amino-1,2,4-thiadiazol-3-yl)acetamido]-3-azidomethyl-3-cephem-4-carboxylic acid (syn isomer)]
- dose excreted at 24 h [1]: 26.6%
- MIC [2]: 0.05 µg/mL (≈ 0.103 µM)
- MIC [3]: 0.1 µg/mL (≈ 0.207 µM)
- dose excreted at 24 h [4]: 4.72%
